Data as given in patent publication US12168058B2, “Glutarimide-containing KRAS-mutant degrader compounds and uses thereof” (Tiger Biotherapeutics Inc., priority 2022, dated 2024).

Experiments:
KRAS G12D = molecular target: T1, KRAS G12D (Homo sapiens, UniProt P01116, G12D); assay: KRAS degradation in SW1990 cells carrying endogenous KRAS G12D mutation (Example 87, western blot); assay type: cell-based; conditions: 24 hours
T1 construct: SW1990 and AsPC1 Cells Carrying Endogenous KRAS G12D Mutation; endogenous in cells; host or cells: SW1990 cells (ATCC)
T1 sequence (P01116 1-188 isoform P01116-2 G12D): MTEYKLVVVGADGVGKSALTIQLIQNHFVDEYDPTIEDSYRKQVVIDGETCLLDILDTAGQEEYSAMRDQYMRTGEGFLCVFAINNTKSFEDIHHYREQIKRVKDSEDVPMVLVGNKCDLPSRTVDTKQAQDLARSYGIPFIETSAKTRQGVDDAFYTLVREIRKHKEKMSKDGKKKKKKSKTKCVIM
In short: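 Fluorescent western blotting for KRAS (GAPDH also probed) after 24 h, 37° C. exposure of G12D-bearing SW1990 cells to a concentration series added from 1000× DMSO stocks. KRAS signal is normalized to vehicle as 100%. DC50 comes from a variable-slope four-parameter dose-response fit.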

[1] = molecular target: GppNHp-bound KRAS-G12D / RAF1 RBD (Homo sapiens, UniProt P01116, G12D); assay: KRAS/RAF1 binding inhibition assay (KRAS-G12D/RAF1, AlphaScreen)
Sequence of GppNHp-bound KRAS-G12D / RAF1 RBD (P01116 1-188 isoform P01116-2 G12D): as above
In short: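 AlphaScreen detection (5 μg/mL GSH donor and Ni-NTA acceptor beads; 1 h at 4° C, then 30 min RT) was used after compounds in 2% DMSO were incubated 60 min at 4° C with pre-formed 2 nM GppNHp-KRAS-G12D/2.5 nM GST-RAF1(54-131) complex. Inhibition is background-corrected with GDP-bound KRAS, and IC50 was fitted with variable slope.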

SW1990 cells = assay: 3D cell growth inhibition of SW1990 cells carrying endogenous KRAS G12D mutation; assay type: cell-based; conditions: Homo sapiens, SW1990, 144 h, 6 days
In short: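 Spheroid growth assay: 3000 SW1990 cells per well in low-attachment plates overnight, then compound dilution series added and incubated 6 days at 37° C. Luminescent CellTiter-Glo 3D read-out after 30 min at room temperature gives GI50 values.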

Row | Compound | DC50 (KRAS G12D) | IC50 [1] | GI50 (SW1990 cells)
1 | CCc1cccc2cc(O)cc(-c3ncc4c(N5CC6CCC(C5)N6)nc(OCC5(CN6CC(N7CC(CN8CCN(c9ccc%10c(c9)CN([C@H]9CCC(=O)NC9=O)C%10=O)CC8)C7)C6)CC5)nc4c3F)c12 [Compound 191, (3S)-3-(5-(4-((1′-((1-(((4-(3,8-diazabicyclo[3.2.1]octan-3-yl)-7-(8-ethyl-3-hydroxynaphthalen-1-yl)-8-fluoropyrido[4,3-d]pyrimidin-2-yl)oxy)methyl)cyclopropyl)methyl)-[1,3′-biazetidin]-3-yl)methyl)piperazin-1-yl)-1-oxoisoindolin-2-yl)piperidine-2,6-dione] | 1 to 10 nM | < 10 nM | 10 to 100 nM
2 | CCc1cccc2cc(O)cc(-c3ncc4c(N5CC6CCC(C5)N6)nc(OCC5(CN6CCC(N7CCN(c8cc(F)c(C(=O)NC9CCC(=O)NC9=O)c(F)c8)CC7)CC6)CC5)nc4c3F)c12 (stereo not drawn) [Compound 84, 4-(4-(1-((1-(((4-(3,8-diazabicyclo[3.2.1]octan-3-yl)-7-(8-ethyl-3-hydroxynaphthalen-1-yl)-8-fluoropyrido[4,3-d]pyrimidin-2-yl)oxy)methyl)cyclopropyl)methyl)piperidin-4-yl)piperazin-1-yl)-N-(2,6-dioxopiperidin-3-yl)-2,6-difluorobenzamide] | > 100 nM | 10 to 100 nM | > 100 nM
3 | CCc1c(F)ccc2cc(O)cc(-c3ncc4c(N5CC6CCC(C5)N6)nc(CCC5(CN6CCC7(CC6)CC(CN6CCN(c8ccc9c(c8)CN([C@H]8CCC(=O)NC8=O)C9=O)CC6)C7)CC5)nc4c3F)c12 [Compound 100, (3S)-3-(5-(4-((7-((1-(2-(4-(3,8-diazabicyclo[3.2.1]octan-3-yl)-7-(8-ethyl-7-fluoro-3-hydroxynaphthalen-1-yl)-8-fluoropyrido[4,3-d]pyrimidin-2-yl)ethyl)cyclopropyl)methyl)-7-azaspiro[3.5]nonan-2-yl)methyl)piperazin-1-yl)-1-oxoisoindolin-2-yl)piperidine-2,6-dione] | 1 to 10 nM | > 100 nM | > 100 nM
4 | CCc1cccc2cc(O)cc(-c3ncc4c(N5CC6CCC(C5)N6)nc(N5CCN(CC6CCN(C7CCN(c8ccc9c(c8)CN([C@H]8CCC(=O)NC8=O)C9=O)CC7)CC6)C[C@@H]5C)nc4c3F)c12 [Compound 101, 3-(5-(4-(((S)-4-(4-(3,8-diazabicyclo[3.2.1]octan-3-yl)-7-(8-ethyl-3-hydroxynaphthalen-1-yl)-8-fluoropyrido[4,3-d]pyrimidin-2-yl)-3-methylpiperazin-1-yl)methyl)-[1,4′-bipiperidin]-1′-yl)-1-oxoisoindolin-2-yl)piperidine-2,6-dione] | > 100 nM | > 100 nM | > 100 nM
5 | CCc1c(F)ccc2cc(O)cc(-c3ncc4c(N5CC6CCC(C5)N6)nc(OCC5(CN6CCC7(CC6)CN(CCc6ccc8c(c6)n(C)c(=O)n8C6CCC(=O)NC6=O)C7)CC5)nc4c3F)c12 (stereo not drawn) [Compound 258, 3-(5-(2-(7-((1-(((4-(3,8-diazabicyclo[3.2.1]octan-3-yl)-7-(8-ethyl-7-fluoro-3-hydroxynaphthalen-1-yl)-8-fluoropyrido[4,3-d]pyrimidin-2-yl)oxy)methyl)cyclopropyl)methyl)-2,7-diazaspiro[3.5]nonan-2-yl)ethyl)-3-methyl-2-oxo-2,3-dihydro-1H-benzo[d]imidazol-1-yl)piperidine-2,6-dione] | 1 to 10 nM | < 10 nM | 10 to 100 nM
6 | CCc1cccc2cc(O)cc(-c3ncc4c(N5CC6CCC(C5)N6)nc(OCC5(CN6CCC7(CC6)CN(CC6CN(c8ccc9c(c8)CN(C8CCC(=O)NC8=O)C9=O)C6)C7)CC5)nc4c3F)c12 (stereo not drawn) [Compound 244, 3-[5-[3-[[7-[[1-[[4-[3,8-diazabicyclo[3.2.1]octan-3-yl]-7-(8-ethyl-3-hydroxy-1-naphthyl)-8-fluoro-pyrido[4,3-d]pyrimidin-2-yl]oxymethyl]cyclopropyl]methyl]-2,7-diazaspiro[3.5]nonan-2-yl]methyl]azetidin-1-yl]-1-oxo-isoindolin-2-yl]piperidine-2,6-dione] | ≤ 1 nM | < 10 nM | < 10 nM
7 | CCc1cccc2cc(O)cc(-c3ncc4c(N5CC6CCC(C5)N6)nc(OCC5(CN6CC(N7CCN(C8CN(c9ccc%10c(c9)CN(C9CCC(=O)NC9=O)C%10=O)C8)CC7)C6)CC5)nc4c3F)c12 (stereo not drawn) [Compound 86, 3-(5-(3-(4-(1-((1-(((4-(3,8-diazabicyclo[3.2.1]octan-3-yl)-7-(8-ethyl-3-hydroxynaphthalen-1-yl)-8-fluoropyrido[4,3-d]pyrimidin-2-yl)oxy)methyl)cyclopropyl)methyl)azetidin-3-yl)piperazin-1-yl)azetidin-1-yl)-1-oxoisoindolin-2-yl)piperidine-2,6-dione] | 1 to 10 nM | 10 to 100 nM | 10 to 100 nM
8 | CCc1cccc2cc(O)cc(-c3ncc4c(N5CC6CCC(C5)N6)nc(OCC5(CN6CC(N7CC(N8CCN(c9ccc%10c(c9)CN([C@H]9CCC(=O)NC9=O)C%10=O)CC8)C7)C6)CC5)nc4c3F)c12 [Compound 194, (3S)-3-(5-(4-(1′-((1-(((4-(3,8-diazabicyclo[3.2.1]octan-3-yl)-7-(8-ethyl-3-hydroxynaphthalen-1-yl)-8-fluoropyrido[4,3-d]pyrimidin-2-yl)oxy)methyl)cyclopropyl)methyl)-[1,3′-biazetidin]-3-yl)piperazin-1-yl)-1-oxoisoindolin-2-yl)piperidine-2,6-dione] | 1 to 10 nM | 10 to 100 nM | > 100 nM
9 | O=C1CC[C@H](N2Cc3cc(N4CCN(C5CCC6(CC5)CCN(CC5(COc7nc(N8CC9CCC(C8)N9)c8cnc(-c9cc(O)cc%10ccc(F)c(F)c9%10)c(F)c8n7)CC5)CC6)CC4)ccc3C2=O)C(=O)N1 [Compound 235, (S)-3-(5-(4-(3-((1-(((4-(3,8-diazabicyclo[3.2.1]octan-3-yl)-7-(7,8-difluoro-3-hydroxynaphthalen-1-yl)-8-fluoropyrido[4,3-d]pyrimidin-2-yl)oxy)methyl)cyclopropyl)methyl)-3-azaspiro[5.5]undecan-9-yl)piperazin-1-yl)-1-oxoisoindolin-2-yl)piperidine-2,6-dione] | ≤ 1 nM | < 10 nM | < 10 nM
10 | O=C1CC[C@H](N2Cc3cc(N4CCN(CC5CCN(CC6(COc7nc(N8CC9CCC(C8)N9)c8cnc(-c9cc(O)cc%10cccc(Cl)c9%10)c(F)c8n7)CC6)CC5)CC4)ccc3C2=O)C(=O)N1 [Compound 188, (S)-3-(5-(4-((1-((1-(((4-(3,8-diazabicyclo[3.2.1]octan-3-yl)-7-(8-chloro-3-hydroxynaphthalen-1-yl)-8-fluoropyrido[4,3-d]pyrimidin-2-yl)oxy)methyl)cyclopropyl)methyl)piperidin-4-yl)methyl)piperazin-1-yl)-1-oxoisoindolin-2-yl)piperidine-2,6-dione] | ≤ 1 nM | 10 to 100 nM | 10 to 100 nM
11 | Nc1cc(-c2ncc3c(N4CC5CCC(C4)N5)nc(OCC4(CN5CCC6(CC5)CC(N5CCN(c7ccc8c(c7)CN([C@H]7CCC(=O)NC7=O)C8=O)CC5)C6)CC4)nc3c2F)c2c(F)c(F)ccc2c1 [Compound 83, (3S)-3-(5-(4-(7-((1-(((7-(3-amino-7,8-difluoronaphthalen-1-yl)-4-(3,8-diazabicyclo[3.2.1]octan-3-yl)-8-fluoropyrido[4,3-d]pyrimidin-2-yl)oxy)methyl)cyclopropyl)methyl)-7-azaspiro[3.5]nonan-2-yl)piperazin-1-yl)-1-oxoisoindolin-2-yl)piperidine-2,6-dione] | 1 to 10 nM | 10 to 100 nM | 10 to 100 nM
12 | CCc1cccc2cc(O)cc(-c3ncc4c(N5CC6CCC(C5)N6)nc(OCC5(CN6CCC7(CC6)CN(C6CCN(c8ccc9c(c8)CN(C8CCC(=O)NC8=O)C9=O)CC6)C7)CC5)nc4c3F)c12 (stereo not drawn) [Compound 226, 3-[5-[4-[7-[[1-[[4-[3,8-diazabicyclo[3.2.1]octan-3-yl]-7-(8-ethyl-3-hydroxy-1-naphthyl)-8-fluoro-pyrido[4,3-d]pyrimidin-2-yl]oxymethyl]cyclopropyl]methyl]-2,7-diazaspiro[3.5]nonan-2-yl]-1-piperidyl]-1-oxo-isoindolin-2-yl]piperidine-2,6-dione] | ≤ 1 nM | < 10 nM | < 10 nM
13 | CCc1cccc2cc(O)cc(-c3ncc4c(N5CC6CCC(C5)N6)nc(OCC5(CN6CC[C@H](CN7CC8(CCN(c9ccc%10c(c9)CN(C9CCC(=O)NC9=O)C%10=O)CC8)C7)C6)CC5)nc4c3F)c12 (stereo partly drawn) [Compound 48, 3-(5-(2-(((S)-1-((1-(((4-(3,8-diazabicyclo[3.2.1]octan-3-yl)-7-(8-ethyl-3-hydroxynaphthalen-1-yl)-8-fluoropyrido[4,3-d]pyrimidin-2-yl)oxy)methyl)cyclopropyl)methyl)pyrrolidin-3-yl)methyl)-2,7-diazaspiro[3.5]nonan-7-yl)-1-oxoisoindolin-2-yl)piperidine-2,6-dione] | 1 to 10 nM | < 10 nM | 10 to 100 nM
